Data from the supplement of paper PMC11451515.

Test system: NOMO1
Assay: cell viability relative to DMSO control; higher = less cytotoxic
Settings: 48 h
Procedure, shortened: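 Viability values are per-plate percentages of DMSO wells, with background from cell-free wells. Library compounds in DMSO were pin-dosed, in an 11-point threefold series from 47 μM to 0.79 nM, onto NOMO1 or SEM (500 cells/well) or P12-Ichikawa (1000 cells/well) leukemia cells in 1536-well plates (5 μl). Those cells had been adapted for at least four passages in each medium, and CellTiter-Glo One luminescence was read after 48 h at 37°C.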

[1] = HPLM + 10% dialyzed FBS, 0.000781 µM
[2] = HPLM + 10% dialyzed FBS, 0.00234 µM
[3] = HPLM + 10% dialyzed FBS, 0.00702 µM
[4] = HPLM + 10% dialyzed FBS, 0.0211 µM
[5] = HPLM + 10% dialyzed FBS, 0.0632 µM
[6] = HPLM + 10% dialyzed FBS, 0.19 µM
[7] = HPLM + 10% dialyzed FBS, 0.569 µM
[8] = HPLM + 10% dialyzed FBS, 1.71 µM
[9] = HPLM + 10% dialyzed FBS, 5.12 µM
[10] = HPLM + 10% dialyzed FBS, 15.4 µM
[11] = HPLM + 10% dialyzed FBS, 46.1 µM
[12] = RPMI 5 mM glucose + 10% FBS, 0.000781 µM
[13] = RPMI 5 mM glucose + 10% FBS, 0.00234 µM
[14] = RPMI 5 mM glucose + 10% FBS, 0.00702 µM
[15] = RPMI 5 mM glucose + 10% FBS, 0.0211 µM
[16] = RPMI 5 mM glucose + 10% FBS, 0.0632 µM
[17] = RPMI 5 mM glucose + 10% FBS, 0.19 µM
[18] = RPMI 5 mM glucose + 10% FBS, 0.569 µM
[19] = RPMI 5 mM glucose + 10% FBS, 1.71 µM
[20] = RPMI 5 mM glucose + 10% FBS, 5.12 µM
[21] = RPMI 5 mM glucose + 10% FBS, 15.4 µM
[22] = RPMI 5 mM glucose + 10% FBS, 46.1 µM
[23] = RPMI 5 mM glucose + 10% dialyzed FBS, 0.000781 µM
[24] = RPMI 5 mM glucose + 10% dialyzed FBS, 0.00234 µM
[25] = RPMI 5 mM glucose + 10% dialyzed FBS, 0.00702 µM
[26] = RPMI 5 mM glucose + 10% dialyzed FBS, 0.0211 µM
[27] = RPMI 5 mM glucose + 10% dialyzed FBS, 0.0632 µM
[28] = RPMI 5 mM glucose + 10% dialyzed FBS, 0.19 µM
[29] = RPMI 5 mM glucose + 10% dialyzed FBS, 0.569 µM
[30] = RPMI 5 mM glucose + 10% dialyzed FBS, 1.71 µM
[31] = RPMI 5 mM glucose + 10% dialyzed FBS, 5.12 µM
[32] = RPMI 5 mM glucose + 10% dialyzed FBS, 15.4 µM
[33] = RPMI 5 mM glucose + 10% dialyzed FBS, 46.1 µM

Structure (SMILES) | cell viability [1] | cell viability [2] | cell viability [3] | cell viability [4] | cell viability [5] | cell viability [6] | cell viability [7] | cell viability [8] | cell viability [9] | cell viability [10] | cell viability [11] | cell viability [12] | cell viability [13] | cell viability [14] | cell viability [15] | cell viability [16] | cell viability [17] | cell viability [18] | cell viability [19] | cell viability [20] | cell viability [21] | cell viability [22] | cell viability [23] | cell viability [24] | cell viability [25] | cell viability [26] | cell viability [27] | cell viability [28] | cell viability [29] | cell viability [30] | cell viability [31] | cell viability [32] | cell viability [33]
COc1cccc2c1[C@]13CCN(CC4CC4)[C@H](C2)[C@]1(OC)CCC(=O)C3 | 89.7% | 96.5% | 127% | 121% | 118% | 119% | 116% | 129% | 122% | 82.2% | 111% | 101% | 111% | 103% | 124% | 126% | 117% | 132% | 125% | 133% | 110% | 124% | 106% | 108% | 106% | 111% | 110% | 116% | 109% | 111% | 105% | 106% | 105%
C[C@]12CCC\3=C\4CCC(=O)\C=C4CC[C@H]3[C@@H]1CC[C@@]2(O)CC#N | 123% | 123% | 138% | 144% | 143% | 139% | 138% | 125% | 158% | 137% | 168% |  |  |  |  |  |  |  |  |  |  |  |  |  |  |  |  |  |  |  |  |  | 
Nc1ncnc2c1nc(Cl)n2[C@@H]1O[C@H](CO)[C@@H](O)[C@H]1O |  |  |  |  |  |  |  |  |  |  |  | 116% | 123% | 110% | 120% | 120% | 113% | 106% | 110% | 118% | 108% | 14.5% |  |  |  |  |  |  |  |  |  |  | 
Cc1c[nH]c(-c2cnc(NCCNc3ccc(C#N)cn3)nc2-c2ccc(Cl)cc2Cl)n1 | 72.9% | 85.8% | 94.2% | 78.5% | 87.3% | 101% | 89.5% | 93.3% | 80.3% | 67.5% | 57.7% | 66.4% | 79.7% | 83.7% | 80.7% | 96.7% | 83.5% | 77.5% | 85.7% | 76.5% | 81.3% | 64.2% | 76.7% | 80.8% | 90.1% | 89.2% | 83.6% | 90.2% | 85.9% | 94.6% | 64.8% | 88% | 64.7%
C[C@H]1O[C@H](C[C@H](O)[C@@H]1O)O[C@H]2[C@@H](O)C[C@@H](O[C@@H]2C)O[C@H]3[C@@H](O)C[C@@H](O[C@@H]3C)O[C@H]4CC[C@@]5(C)[C@H](CC[C@@H]6[C@@H]5C[C@@H](O)[C@]7(C)[C@H](CC[C@]67O)C/8=C/C(=O)OC8)C4 | 120% | 119% | 136% | 138% | 97.2% | 25.3% | 12.2% | 8.48% | 8.1% | 7.39% | 5.28% | 113% | 112% | 120% | 107% | 107% | 95.8% | 21.9% | 9.57% | 11% | 12.1% | 9.59% | 120% | 121% | 109% | 115% | 114% | 57.2% | 13.5% | 7.93% | 7.1% | 7.81% | 7.62%
N#C/C(C(=O)c1ccc(Cl)cc1Cl)=C1/NC(=O)c2ccc(Cl)cc2N1 | 117% | 108% | 122% | 128% | 130% | 117% | 114% | 105% | 109% | 102% | 106% | 105% | 119% | 111% | 109% | 105% | 111% | 103% | 102% | 94.5% | 95.1% | 98.2% | 113% | 114% | 114% | 104% | 118% | 114% | 107% | 103% | 110% | 103% | 105%
CC(O)C1C2C(C)\C(=C(/N2C1=O)C(O)=O)SC3CNC(C3)C(=O)N(C)C (stereo unspecified) | 75.7% | 78.3% | 85.5% | 94.8% | 99% | 82.5% | 87.7% | 97.5% | 82.8% | 81.7% | 88.7% | 86.1% | 84.1% | 85.2% | 89.1% | 81.7% | 84.4% | 82.5% | 81.6% | 82.8% | 88.4% | 86.3% | 68.1% | 73.9% | 72.6% | 84.1% | 84.2% | 86.2% | 85.6% | 88.4% | 82.6% | 91.5% | 91%
COc1cc(C)c(Sc2cnc(NC(=O)c3ccc(CNC(C)C(C)C)cc3)s2)cc1C(=O)N1CCN(C(C)=O)CC1 (stereo unspecified) |  |  |  |  |  |  |  |  |  |  |  | 117% | 119% | 128% | 131% | 117% | 126% | 134% | 108% | 105% | 107% | 126% |  |  |  |  |  |  |  |  |  |  | 
C[C@@]1(C(=O)Nc2ccc(F)nc2)CCCN1c1nc(Nc2cc(C3CC3)[nH]n2)c2cccn2n1 | 83.2% | 108% | 108% | 89.9% | 90.7% | 71.2% | 77.4% | 67.5% | 44.9% | 46.3% | 62% | 104% | 108% | 120% | 110% | 108% | 93.3% | 112% | 86% | 62.9% | 56.8% | 68.5% | 96.6% | 108% | 105% | 102% | 97.9% | 85.4% | 80% | 86.2% | 51.6% | 55.2% | 60%
